Results from PubChem BioAssay (NCI).
Several values for one entry are separate records, joined by “and”; a condition that tells them apart may be missing. Identical values can stand only once.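 Five concentrations, 48 hours, 96-well plates. At the GI50, growth is halved. TGI: total growth inhibition.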

Columns and labels:
Assay in all cases: NCI tumour cell line growth inhibition, 48 h
[1] = system: MDA-N
[2] = system: DLD-1 colon
[3] = system: DMS 114 small cell lung
[4] = system: DMS 273 small cell lung
[5] = system: HOP-18 NSCLC
[6] = system: LXFL 529 NSCLC
[7] = system: RXF-631 renal
[8] = system: SNB-78 CNS
[9] = system: P388 leukemia
[10] = system: P388/ADR leukemia
[11] = system: SN12K1 renal
[12] = system: XF 498 CNS

Compound	TGI [1]	TGI [2]	TGI [3]	TGI [4]	TGI [5]	TGI [6]	TGI [7]	TGI [8]	TGI [12]	further results
O=C(O)C(Cc1c[nH]c2ccccc12)N1C(=O)c2ccccc2C1=O (configuration not stated)	> 100 µM	–	–	–	–	–	–	–	–	–
C(/C=C/N1CCCC1)=C\c1nc(N2CCCC2)c2ccccc2n1	–	37.1 µM	33.2 µM	34.2 µM	30.3 µM	28 µM	41.3 µM	43.6 µM	–	–
O=C1c2c(O)ccc(O)c2C(=O)c2c(NCCNCCO)ccc(NCCNCCO)c21	1.48 µM and 1.66 µM	4.87 µM	0.263 µM	0.57 µM	1.67 µM	–	–	1.66 µM	0.0879 µM	TGI [9]: 0.0821 µM; TGI [10]: 6 µM; TGI [11]: 0.305 µM
O=C(/C(=N/Nc1cn[nH]c(=O)c1Cl)c1ccccc1)c1ccccc1	32.8 µM	–	–	–	–	–	–	–	–	–
O=C(NOC(=O)c1ccc([N+](=O)[O-])cc1)c1ccc(Cl)cc1	–	> 100 µM	> 100 µM	–	89.7 µM	> 100 µM	> 100 µM	65.3 µM	> 100 µM	–
C=C[C@@]1(C)CC(=O)[C@]2(O)[C@@]3(C)[C@@H](O)CCC(C)(C)[C@@H]3[C@H](O)[C@@H](OC(C)=O)[C@@]2(C)O1	> 100 µM	–	–	–	–	–	–	–	–	–
Cc1cc(C)c2nccc(NCCCN(C)C)c2c1[N+](=O)[O-]	> 100 µM	–	–	–	–	–	–	–	–	–
COC(=O)C1=C(C(=O)OC)C(C(=O)OC)C(C(=O)OC)C(C(=O)OC)(C(=O)OC)C(C(=O)OC)=C1C(=O)OC (configuration not stated)	31.2 µM	6.98 µM	23.2 µM	–	31 µM	21.8 µM	–	44 µM	25.3 µM	–
Cc1cc(N(CCC#N)CCC#N)ccc1/C=C/C(=O)Nc1ccccc1Cl	–	> 100 µM	> 100 µM	> 100 µM	–	> 100 µM	–	–	> 100 µM	–
CC1(C)Oc2ccccc2N2O[C@@H]3C(=O)N(c4ccccc4)C(=O)[C@@H]3C21c1ccccc1 (some centres not stated)	–	65.7 µM	62.9 µM	–	49.1 µM	> 100 µM	–	79.4 µM	–	–
O=c1ncccn1C1OC(CO)C(O)C1F (configuration not stated)	–	> 100 µM	> 100 µM	> 100 µM	> 100 µM	> 100 µM	> 100 µM	> 100 µM	> 100 µM	GI50 [2]: > 100 µM
COc1cc(/C=C2/C(=O)N(C(=O)c3ccccc3O)N=C2C)ccc1O	> 100 µM	> 100 µM	7.73 µM	–	–	> 100 µM	–	–	79.6 µM	–
CCCC(=O)Nc1cn(COC)c(C(=O)N2C[C@H]3C[C@@]34C2=CC(=O)c2[nH]cc(C)c24)n1	19.5 µM and 59.6 µM	–	–	–	–	–	–	–	–	GI50 [1]: 7.62 µM
COc1cc(-c2nn3c(=O)n(-c4ccc(Cl)cc4)c(=O)nc3s2)cc(OC)c1OC	–	> 100 µM	–	> 100 µM	> 100 µM	–	50 µM and > 100 µM	50 µM and > 100 µM	–	GI50 [2]: > 50 µM; GI50 [8]: 8.88 µM
CN1C(=O)CC2(C)c3cc(C=O)ccc3N(C)C12 (configuration not stated)	–	> 100 µM	> 100 µM	–	> 100 µM	> 100 µM	> 100 µM	> 100 µM	> 100 µM	–
O=C1Cc2ccccc2CCc2ccccc21	–	> 100 µM	> 100 µM	> 100 µM	> 100 µM	> 100 µM	–	> 100 µM	–	–
CCC1(Cl)C(=O)NC(=O)N(C2CC(O)C(CO)O2)C1N=[N+]=[N-] (configuration not stated)	–	> 100 µM	> 100 µM	> 100 µM	–	> 100 µM	> 100 µM	> 100 µM	> 100 µM	–
O=C1Nc2ccc(Br)cc2C1=Nc1ccc(Cl)cc1	23.5 µM	–	–	–	–	–	–	–	–	–
COc1cc2c(c(OC)c1OC)-c1ccc(SC)c(=O)cc1[C@@H](NC(=O)c1ccc(F)cc1)CC2	–	> 100 µM	0.0636 µM and < 0.01 µM	44.7 µM	–	> 100 µM	–	> 100 µM	0.0844 µM	GI50 [2]: < 0.01 µM; GI50 [3]: 0.0267 µM and < 0.01 µM; GI50 [6]: < 0.01 µM; GI50 [8]: < 0.01 µM
CCOc1ccccc1NC(=O)CCC(=O)NN	–	> 100 µM	–	> 100 µM	–	> 100 µM	> 100 µM	> 100 µM	> 100 µM	–

Compound	TGI [1]	TGI [2]	TGI [3]	TGI [4]	TGI [5]	TGI [6]	TGI [7]	TGI [8]	TGI [12]	further results
BrC(Br)([P+](c1ccccc1)(c1ccccc1)c1ccccc1)[P+](c1ccccc1)(c1ccccc1)c1ccccc1	–	40.6 µM	30.3 µM	32.6 µM	> 100 µM	34.5 µM	–	90.1 µM	–	–
Nc1ccc2c(SCC(=O)Nc3ccccc3-c3ccccc3NC(=O)CSc3c4ccccc4nc4cc(N)ccc34)c3ccccc3nc2c1	> 69.5 µM	38.4 µM	56.2 µM	> 100 µM	68.8 µM	41.3 µM	> 100 µM	> 100 µM	52.8 µM	–
CCCC/C=C1\CCC(CN2CCCC2)C1=O (configuration not stated)	–	12.8 µM	31.8 µM	34.3 µM	–	3.21 µM	32.4 µM	57.2 µM	29.6 µM	–
O=C(O)C(O)c1ccc(F)cc1 (configuration not stated)	> 100 µM	–	–	–	–	–	–	–	–	–
Cc1ccc(N2C(=O)/C(=C3\Sc4c(nc(C)n(C)c4=O)N3c3ccccc3)SC2=S)cc1	–	–	95.1 µM	> 100 µM	–	> 100 µM	–	> 100 µM	> 100 µM	–
C=C1C(=O)C23CC1CCC2C12CO[C@@]3(O)[C@@H](O)C1C(C)(C)C=CC2=O (some centres not stated)	7.71 µM	2.22 µM	–	1.3 µM	2.2 µM	–	2.33 µM	2.23 µM	1.42 µM	–
CN1C=C(C(N)=O)C2CC(O)[C@@](NC(=O)CS(N)(=O)=O)(C(=O)O)C2C1 (some centres not stated)	–	52.7 µM	7.38 µM	9.75 µM	> 100 µM	–	9.7 µM	8.68 µM	3.21 µM	–
N=C(N)SCC(=O)O	> 100 µM	–	–	–	–	–	–	–	–	–
CC(=O)[O-].O=[N+]([O-])c1ccc([O-])c(C=NCCN=Cc2cc([N+](=O)[O-])ccc2[O-])c1.[Mn+3]	–	> 100 µM	> 100 µM	> 100 µM	> 100 µM	> 100 µM	–	> 100 µM	–	GI50 [2]: > 100 µM; GI50 [3]: 98 µM; GI50 [4]: > 100 µM; GI50 [5]: > 100 µM; GI50 [6]: > 100 µM; GI50 [8]: > 100 µM
c1cc2ccc1C1NCCCN1CCN1CCCNC1c1ccc(cc1)C1NCCCN1CCN1CCCNC21 (configuration not stated)	–	> 100 µM	> 100 µM	> 100 µM	> 100 µM	> 100 µM	–	–	> 100 µM	–
OCCN(CCO)c1ncnc2c1sc(=S)n2-c1ccccc1	–	> 100 µM	> 100 µM	> 100 µM	> 100 µM	> 100 µM	–	> 100 µM	> 100 µM	–
CC(C)(C)c1cc(C(=O)O)c(C(c2ccccc2)c2ccccc2C(=O)O)c(C(=O)O)c1 (configuration not stated)	–	> 100 µM	> 100 µM	> 100 µM	> 100 µM	> 100 µM	–	> 100 µM	> 100 µM	–
CC12O[Te]34OC1(C)C(C)(O3)C2(C)O4	–	30.4 µM	25.7 µM	37.7 µM	32 µM	26.7 µM	–	65.9 µM	–	–
C=C1c2ccccc2N(S(=O)(=O)c2ccc(C)cc2)C12CCCCC2	–	> 100 µM	> 100 µM	> 100 µM	> 100 µM	> 100 µM	–	–	> 100 µM	–
NC(=O)c1ncn(C2OC(CO)C(O)C2O)c1NC(=S)NC(=O)c1ccccc1 (configuration not stated)	–	> 100 µM	> 100 µM	> 100 µM	–	> 100 µM	–	> 100 µM	–	–
Nc1nc(Cl)cc(NCCCCCCNc2cc(Cl)nc(N)n2)n1	–	> 100 µM	–	> 100 µM	> 100 µM	> 100 µM	> 100 µM	–	87 µM	–
C1=CC=C2NCCSCCNC3=CC=CC=CC3=NCCSCCN=C2C=C1	–	> 100 µM	> 100 µM	> 100 µM	> 100 µM	> 100 µM	–	> 100 µM	–	–
CCOC(=O)c1cc(C(=O)O)c(=O)n2c1[nH]c1ccccc12	–	> 100 µM	> 100 µM	> 100 µM	> 100 µM	> 100 µM	> 100 µM	> 100 µM	> 100 µM	–
O=C1OC(c2ccc(Cl)c3ccccc23)c2ccccc21 (configuration not stated)	–	–	> 100 µM	–	> 100 µM	–	> 100 µM	> 100 µM	> 100 µM	–
